Like-named read-outs stand apart in the source and are kept apart here. A value given as a limit tells only on which side of the number the result lay.

The target in one assay is Human plasma kallikrein (Homo sapiens (Human), UniProt P03952). The assay can be described thus: Kallikrein Assay. The class given is biochemical. Conditions: purified Human plasma kallikrein 0.5 nM, Acetyl-K-P-R-AFC, pH 7.4; Ki from IC50 by Cheng Prusoff. In outline:
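Purified human plasma kallikrein (0.5 nM final) with Acetyl-K-P-R-AFC substrate ([…]) in 50 mM HEPES pH 7.4, 150 mM NaCl, 5 mM CaCl2, 0.1% PEG 8000, after enzyme-inhibitor equilibration. Fluorescence (405 ex/510 em) under linear conditions; IC50 from four-parameter fit, converted to Ki by Cheng-Prusoff.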

The next assay deals with human Factor XIa (Homo sapiens (Human), UniProt P03951). The assay can be described thus: Factor XIa Assay. The format is biochemical. To be noted: read-out: FXIa Ki. In outline: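 Purified human FXIa (40 pM final) hydrolysing fluorogenic Z-Gly-Pro-Arg-AFC (100 μM) in 50 mM HEPES pH 7.4, 150 mM NaCl, 5 mM CaCl2, 0.1% PEG 8000, at room temperature or 37° C. Initial velocities measured after enzyme–inhibitor equilibration; Ki from Vo/Vi versus [I], assuming competitive inhibition.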
Sequence of human Factor XIa (P03951 388-625): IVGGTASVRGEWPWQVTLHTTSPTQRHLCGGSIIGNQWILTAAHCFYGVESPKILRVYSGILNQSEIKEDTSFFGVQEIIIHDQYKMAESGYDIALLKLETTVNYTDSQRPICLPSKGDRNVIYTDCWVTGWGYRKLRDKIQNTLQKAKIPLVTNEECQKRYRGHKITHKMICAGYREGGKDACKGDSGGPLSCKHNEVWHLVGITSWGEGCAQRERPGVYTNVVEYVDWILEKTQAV
Sequence of human Factor XIa (P03951 19-387 partner): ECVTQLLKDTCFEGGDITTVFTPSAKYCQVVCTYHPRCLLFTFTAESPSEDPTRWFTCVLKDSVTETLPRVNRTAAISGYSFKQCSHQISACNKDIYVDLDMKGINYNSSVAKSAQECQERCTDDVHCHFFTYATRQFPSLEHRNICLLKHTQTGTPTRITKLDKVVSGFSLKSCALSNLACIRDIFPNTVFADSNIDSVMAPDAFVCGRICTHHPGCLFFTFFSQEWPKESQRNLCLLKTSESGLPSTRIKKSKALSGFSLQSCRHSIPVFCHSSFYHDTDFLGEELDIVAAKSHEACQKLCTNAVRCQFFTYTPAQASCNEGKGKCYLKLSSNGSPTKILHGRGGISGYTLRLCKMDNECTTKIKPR

The mark [1] stands for this setting: purified human Factor XIa 40 pM, Z-Gly-Pro-Arg-AFC 100 μM, pH 7.4.

Sequence of Human plasma kallikrein (P03952 391-638): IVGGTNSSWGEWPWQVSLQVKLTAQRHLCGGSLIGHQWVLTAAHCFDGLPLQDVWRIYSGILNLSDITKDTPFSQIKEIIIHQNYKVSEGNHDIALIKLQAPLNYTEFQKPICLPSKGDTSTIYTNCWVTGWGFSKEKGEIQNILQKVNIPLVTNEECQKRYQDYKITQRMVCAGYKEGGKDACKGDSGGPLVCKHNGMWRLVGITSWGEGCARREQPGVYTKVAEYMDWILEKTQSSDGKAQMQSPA
Sequence of Human plasma kallikrein (P03952 20-390 partner): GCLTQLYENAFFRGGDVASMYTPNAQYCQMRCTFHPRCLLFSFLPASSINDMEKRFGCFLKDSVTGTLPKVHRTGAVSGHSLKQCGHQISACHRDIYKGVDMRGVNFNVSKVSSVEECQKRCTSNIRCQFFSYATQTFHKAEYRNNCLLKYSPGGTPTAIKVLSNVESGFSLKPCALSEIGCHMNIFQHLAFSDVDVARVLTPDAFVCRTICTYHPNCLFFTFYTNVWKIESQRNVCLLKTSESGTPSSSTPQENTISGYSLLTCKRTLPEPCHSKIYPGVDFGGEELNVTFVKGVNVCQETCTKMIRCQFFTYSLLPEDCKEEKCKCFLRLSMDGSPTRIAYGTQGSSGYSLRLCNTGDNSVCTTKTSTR

As a reminder, the Ki is a measure of affinity in units of concentration, obtained from inhibition or displacement. In the case of `COC(=O)Nc1ccc(C(=O)N[C@@H](Cc2cc(C3CC3)no2)C(=O)N2CC[C@@]3(C2)OC(=O)Nc2ccc(Cl)cc23)cc1` [Example 84, methyl (4-(((S)-1-((R)-6-chloro-2-oxo-1,2-dihydrospiro[benzo[d][1,3]oxazine-4,3′-pyrrolidin]-1′-yl)-3-(3-cyclopropylisoxazol-5-yl)-1-oxopropan-2-yl)carbamoyl)phenyl)carbamate], the Ki is 28.4 nM on Human plasma kallikrein and 28.1 nM on human Factor XIa (setting [1]).
For the compound `O=C1Nc2ccc(Cl)c(F)c2[C@@]2(CCCN(C(=O)[C@H](Cc3ccccc3)NC(=O)c3ccc(B(O)O)s3)C2)O1` [Example 233], the Ki at Human plasma kallikrein turned out to be 2.44 nM; at human Factor XIa it was 7.88 nM.
Take `Nc1n[nH]c2cc(C(=O)N[C@@H](CC(=O)N3CCCC3)C(=O)N3CCC[C@@]4(C3)OC(=O)Nc3ccc(Cl)cc34)ccc12` [Example 268]: the Ki is 0.9 nM at Human plasma kallikrein and 0.85 nM on human Factor XIa.
Take `O=C1Nc2ccc(Cl)cc2[C@@]2(CCN(C(=O)[C@H](Cc3ccccc3)NC(=O)c3ccc4[nH]c(=O)c(=O)[nH]c4c3)C2)O1` [Example 198]: the values for the Ki on Human plasma kallikrein and on human Factor XIa were 30.1 nM and 2.77 nM, respectively.
As for `COC(=O)Nc1ccc(C(=O)N[C@@H](Cc2ccc(-c3conc3C)cc2)C(=O)N2CC[C@@]3(C2)OC(=O)Nc2ccc(Cl)cc23)cc1` [Example 82, methyl (4-(((S)-1-((R)-6-chloro-2-oxo-1,2-dihydrospiro[benzo[d][1,3]oxazine-4,3′-pyrrolidin]-1′-yl)-3-(4-(3-methylisoxazol-4-yl)phenyl)-1-oxopropan-2-yl)carbamoyl)phenyl)carbamate], the Ki came out at 11.7 nM on Human plasma kallikrein and 7.12 nM on human Factor XIa (setting [1]).
In the case of `COC(=O)Nc1ccc(C(=O)N[C@@H](Cc2sccc2F)C(=O)N2CCC3(C2)OC(=O)Nc2ccc(Cl)cc23)cc1` (stereo partly drawn) [Example 43, methyl (4-(((2S)-1-(6-chloro-2-oxo-1,2-dihydrospiro[benzo[d][1,3]oxazine-4,3′-pyrrolidin]-1′-yl)-3-(3-fluorothiophen-2-yl)-1-oxopropan-2-yl)carbamoyl)phenyl)carbamate], the values for the Ki on Human plasma kallikrein and at human Factor XIa (setting [1]) were 42.5 nM and 17.7 nM, respectively.
On to `COC(=O)Nc1ccc(C(=O)N[C@@H](CO)C(=O)N2CCC[C@@]3(C2)OC(=O)Nc2ccc(Cl)cc23)cc1` [Example 38, methyl (4-(((S)-1-((R)-6-chloro-2-oxo-1,2-dihydrospiro[benzo[d][1,3]oxazine-4,3′-piperidin]-1′-yl)-3-hydroxy-1-oxopropan-2-yl)carbamoyl)phenyl)carbamate], for which the results for the Ki on Human plasma kallikrein and on human Factor XIa (setting [1]) were 9.45 nM and 49.9 nM, respectively.
Consider `COC(=O)Nc1ccc(C(=O)N[C@@H](Cc2cscn2)C(=O)N2CCC3(C2)OC(=O)Nc2ccc(Cl)cc23)cc1` (stereo partly drawn) [Example 40, methyl (4-(((2S)-1-(6-chloro-2-oxo-1,2-dihydrospiro[benzo[d][1,3]oxazine-4,3′-pyrrolidin]-1′-yl)-1-oxo-3-(thiazol-4-yl)propan-2-yl)carbamoyl)phenyl)carbamate], for which the Ki on Human plasma kallikrein is 116 nM; at human Factor XIa (setting [1]), 52.4 nM.
On to `COC(=O)Nc1ccc(C(=O)N[C@@H](Cc2ccc(C(N)=O)cc2)C(=O)N2CCC[C@@]3(C2)OC(=O)Nc2ccc(Cl)cc23)cc1` [Example 47, methyl (4-(((S)-3-(4-carbamoylphenyl)-1-((R)-6-chloro-2-oxo-1,2-dihydrospiro[benzo[d][1,3]oxazine-4,3′-piperidin]-1′-yl)-1-oxopropan-2-yl)carbamoyl)phenyl)carbamate], for which the Ki is below 1.3 nM on Human plasma kallikrein and 0.55 nM on human Factor XIa (setting [1]).
Turning to `COC(=O)Nc1ccc(C(=O)N[C@@H](Cc2ccc(C#N)cc2)C(=O)N2CCC[C@@]3(C2)OC(=O)Nc2ccc(Cl)cc23)cc1` [Example 45, methyl (4-(((S)-1-((R)-6-chloro-2-oxo-1,2-dihydrospiro[benzo[d][1,3]oxazine-4,3′-piperidin]-1′-yl)-3-(4-cyanophenyl)-1-oxopropan-2-yl)carbamoyl)phenyl)carbamate], the Ki was below 1.3 nM at Human plasma kallikrein and 5.55 nM at human Factor XIa (setting [1]).
For the compound `COC(=O)Nc1ccc(C(=O)N[C@@H](CCc2ccccc2)C(=O)N2CCC3(C2)OC(=O)Nc2ccc(Cl)cc23)cc1` (stereo partly drawn) [Example 52, methyl (4-(((2S)-1-(6-chloro-2-oxo-1,2-dihydrospiro[benzo[d][1,3]oxazine-4,3′-pyrrolidin]-1′-yl)-1-oxo-4-phenylbutan-2-yl)carbamoyl)phenyl)carbamate], the figures for the Ki on Human plasma kallikrein and on human Factor XIa (setting [1]) were 92.8 nM and 17.6 nM, respectively.
Take `COC(=O)Nc1cccc(C(=O)N[C@@H](Cc2ccccc2)C(=O)N2CCC3(C2)OC(=O)Nc2ccc(Cl)cc23)c1` (stereo partly drawn) [Example 143, methyl (3-(((2S)-1-(6-chloro-2-oxo-1,2-dihydrospiro[benzo[d][1,3]oxazine-4,3′-pyrrolidin]-1′-yl)-1-oxo-3-phenylpropan-2-yl)carbamoyl)phenyl)carbamate]: the results for the Ki on Human plasma kallikrein and at human Factor XIa were 2.63 nM and 1250 nM, respectively.
Turning to `O=C1Nc2ccc(Cl)c(F)c2[C@@]2(CCCN(C(=O)[C@H](CC3CC3)NC(=O)c3ccc4[nH]c(=O)[nH]c4c3)C2)O1` [Example 213], the inhibition constant Ki at Human plasma kallikrein is 0.54 nM; on human Factor XIa, 10.4 nM.
Regarding `COC(=O)Nc1ccc(C(=O)N[C@@H](Cc2ccc(F)cc2)C(=O)N2CC[C@@]3(C2)OC(=O)Nc2ccc(Cl)cc23)cc1` [Example 22, methyl (4-(((S)-1-((R)-6-chloro-2-oxo-1,2-dihydrospiro[benzo[d][1,3]oxazine-4,3′-pyrrolidin]-1′-yl)-3-(4-fluorophenyl)-1-oxopropan-2-yl)carbamoyl)phenyl)carbamate], the Ki at Human plasma kallikrein was 21.9 nM; on human Factor XIa (setting [1]), 5.3 nM.
For the compound `COC(=O)Nc1ccc(C(=O)N[C@@H](Cc2ccc(OC)cn2)C(=O)N2CCC[C@@]3(C2)OC(=O)Nc2ccc(Cl)c(F)c23)cc1` [Example 75, methyl (4-(((S)-1-((R)-6-chloro-5-fluoro-2-oxo-1,2-dihydrospiro[benzo[d][1,3]oxazine-4,3′-piperidin]-1′-yl)-3-(5-methoxypyridin-2-yl)-1-oxopropan-2-yl)carbamoyl)phenyl)carbamate], the Ki came to 1.56 nM on Human plasma kallikrein and 1.9 nM at human Factor XIa (setting [1]).
For the compound `O=C1Nc2ccc(Cl)cc2[C@@]2(CCCN(C(=O)[C@H](Cc3ccccc3)NC(=O)c3ccc(C(=O)O)s3)C2)O1` [Example 203], the inhibition constant (Ki) on Human plasma kallikrein came out at 2.1 nM; on human Factor XIa it was 10.3 nM.
Consider `COC(=O)Nc1ccc(C(=O)N[C@@H](CC(=O)N2CCCCC2)C(=O)N2CC[C@@]3(C2)OC(=O)Nc2ccc(Cl)cc23)cc1` [Example 87, methyl (4-(((S)-1-((R)-6-chloro-2-oxo-1,2-dihydrospiro[benzo[d][1,3]oxazine-4,3′-pyrrolidin]-1′-yl)-1,4-dioxo-4-(piperidin-1-yl)butan-2-yl)carbamoyl)phenyl)carbamate], for which the Ki stood at 11 nM at Human plasma kallikrein and 3.65 nM on human Factor XIa (setting [1]).
Take `COC(=O)Nc1ccc(C(=O)N[C@@H](Cc2ccc3ccccc3c2)C(=O)N2CCC3(C2)OC(=O)Nc2ccc(Cl)cc23)cc1` (stereo partly drawn) [Example 50, methyl (4-(((2S)-1-(6-chloro-2-oxo-1,2-dihydrospiro[benzo[d][1,3]oxazine-4,3′-pyrrolidin]-1′-yl)-3-(naphthalen-2-yl)-1-oxopropan-2-yl)carbamoyl)phenyl)carbamate]: the Ki at Human plasma kallikrein is 227 nM; on human Factor XIa (setting [1]), 33.7 nM.
The corresponding values for `COC(=O)Nc1ccc(C(=O)N[C@@H](Cc2ccc(-c3cc[nH]c3)cc2)C(=O)N2CC[C@@]3(C2)OC(=O)Nc2ccc(Cl)cc23)cc1` [Example 79, methyl (4-(((S)-3-(4-(1H-pyrrol-3-yl)phenyl)-1-((R)-6-chloro-2-oxo-1,2-dihydrospiro[benzo[d][1,3]oxazine-4,3′-pyrrolidin]-1′-yl)-1-oxopropan-2-yl)carbamoyl)phenyl)carbamate] are 14.5 nM and 9.98 nM.
In the case of `O=C1Nc2ccc(Cl)c(F)c2[C@@]2(CCCN(C(=O)[C@H](CC3CC3)NC(=O)c3ccc(-c4ncc[nH]4)s3)C2)O1` [Example 237], the Ki on Human plasma kallikrein worked out at 0.96 nM; on human Factor XIa, 5.85 nM.
`COC(=O)Nc1ccc(C(=O)N[C@@H](CC(=O)N2CC(OC)C2)C(=O)N2CCC[C@@]3(C2)OC(=O)Nc2ccc(Cl)cc23)cc1` [Example 97, methyl (4-(((S)-1-((R)-6-chloro-2-oxo-1,2-dihydrospiro[benzo[d][1,3]oxazine-4,3′-piperidin]-1′-yl)-4-(3-methoxyazetidin-1-yl)-1,4-dioxobutan-2-yl)carbamoyl)phenyl)carbamate]: the values for the Ki at Human plasma kallikrein and at human Factor XIa (setting [1]) were 15.3 nM and 51.1 nM, respectively.
Take `COC(=O)Nc1ccc(C(=O)NC(C[C@@H]2CCCO2)C(=O)N2CCC[C@@]3(C2)OC(=O)Nc2ccc(Cl)c(F)c23)cc1` (single isomer, unassigned) [Example 116A]: the Ki came to 4.78 nM at Human plasma kallikrein and 7.51 nM at human Factor XIa (setting [1]).
As to `COC(=O)Nc1ccc(C(=O)N[C@@H](Cn2cccn2)C(=O)N2CCC3(C2)OC(=O)Nc2ccc(Cl)cc23)cc1` (stereo partly drawn) [Example 31, methyl (4-(((2S)-1-(6-chloro-2-oxo-1,2-dihydrospiro[benzo[d][1,3]oxazine-4,3′-pyrrolidin]-1′-yl)-1-oxo-3-(1H-pyrazol-1-yl)propan-2-yl)carbamoyl)phenyl)carbamate], the Ki at Human plasma kallikrein came out at 77.3 nM; on human Factor XIa (setting [1]), 26 nM.

(Values after patent publication US10093683B2, “Factor XIa inhibitors” (Merck Sharp & Dohme Corp., priority 2014, dated 2018).)
